Laboratory results reported in patent US20230265456A1, “GENE THERAPY VECTOR EXPRESSING CYP27A1 FOR THE TREATMENT OF CEREBROTENDINOUS XANTHOMATOSIS” (FUNDACION PARA LA INVESTIGACION MEDICA APLICADA, priority 2020, published 2023).
“Also recorded” adds a separate entry of the source.

How the values were obtained:
Format in all cases: in vivo, mouse
[1] = tested on: CTX mice; assay: Cholestanol and 7αC4 in plasma of treated CTX mice (HPLC-MS/MS)
Text: A mouse strain with truncation of Cyp27a1 exon 8 was obtained from The Jackson Laboratory (Bar Harbor, Me.) (B6.129-Cyp27a1^tm1Et/J, Ref. 009106) (Rosen H, et al. J. Biol. Chem. 1998; 273:14805-14812). Mice homozygous for this mutation (referred hereinafter to as Cyp27a1^−/− or CTX mice) were maintained in a C57BL6/J background by crossing heterozygous individuals. The offspring was genotyped after weaning as indicated by the repository.
Animals were group-housed, up to 6 animals per cage (male or female), provided with food and water ad libitum and maintained with a 12 h light-dark cycle. The average age for initiation of studies was 7 weeks. AAV vectors were administered intravenously by retro-orbital injection in a final volume of 150 μl saline solution. Chenodeoxycholic (CDCA) (Sigma-Aldrich, Ref: C9377-25G) was supplemented in standard chow at 0.1, 0.5 and 1 g CDCA/100 g of chow (0.1, 0.5 and 1.0% CDCA diets, respectively). Blood was collected by submandibular venous puncture using 1.3 ml EDTA tubes (Sarstedt, Nimbrecht, Germany) except for end-time points/terminal procedures, in which cardiac puncture was performed in anesthetized mice. Once animals were euthanized, liver samples were collected for histological and gene expression analyses.
(§1) Blood was centrifuged at 10.000 g for 5 min at room temperature. Plasma was treated with 20 μM butylhydroxytoluene (Sigma) in a N2 atmosphere to protect from oxidation before storage at −80° C. in opaque tubes. Sterol extractions were performed using 100 μl of plasma for quantification of cholestanol and 7αC4 concentrations by HPLC-MS/MS as previously described (Chen W, Chiang J Y L. Gene. 2003; 313:71-82). Bile acid (BA) profiling in serum was carried out after acetonitrile precipitation/extraction (Leníček M, et al. J. Chromatogr. B Anal. Technol. Biomed. Life Sci. 2016; 1033-1034:317-320), using an adaptation (Nytofte N S, et al. J. Med. Genet. 2011; 48:219-225). of a previously described method for BA measurement by HPLC-MS/MS (Ye L, et al. J. Chromatogr. B Anal. Technol. Biomed. Life Sci. 2007; 860:10-17) on a 6420 Triple Quad LC/MS device (Agilent Technologies, Santa Clara, Calif.) (Monte M J, et al. J. Hepatol. 2002; 36:534-542). Alanine aminotransferase (ALT) was quantified in 40 μl plasma samples using a Cobas C311 automated chemistry analyser (Roche Diagnostics, Basel, Switzerland).
This is the only CTX animal model available to date (Rosen et al. J. Biol. Chem. 273 (1998) 14805-14812).
Blood was collected 15 days later for determination of cholestanol and 7aC4 in plasma by HPLC/mass spectrometry. […] Of note, neither elevation of liver transaminases nor any other sign of toxicity was detected in any of the treated animals.

[2] = tested on: CTX mice; assay: Tolerability: transaminases (ALT), liver histology, body weight, signs of toxicity; details: diet 1% of chow weight
Method: Blood was centrifuged at 10.000 g for 5 min at room temperature. Plasma was treated with 20 μM butylhydroxytoluene (Sigma) in a N2 atmosphere to protect from oxidation before storage at −80° C. in opaque tubes. […] Alanine aminotransferase (ALT) was quantified in 40 μl plasma samples using a Cobas C311 automated chemistry analyser (Roche Diagnostics, Basel, Switzerland).

[3] = tested on: Cyp27a1; assay: Endogenous Cyp27a1 mRNA in liver (primers exons 1/2), qPCR; details: liver 2 weeks after vector or one month after initiation of CDCA diet
Method: (§2) RNA was extracted from frozen liver samples using the Maxwell® 16 LEV simplyRNA Cells Kit (Promega) following manufacture's recommendations. Two μg of RNA, treated with DNase I, were retro-transcribed using M-MLV retro-transcriptase (Invitrogen™) and random primers (Life Technologies, Thermo). cDNA was amplified and relative gene expression was determined by quantitative polymerase chain reaction (qPCR) using iQ™ SYBR® Green Supermix reagent (Bio-Rad), in CFX96 Touch™ Real-Time PCR Detection System (Bio-Rad). Table 1 contains the sequence of primers specific for the transgene (CYP27A1) and the mouse genes Cyp7a1, Cyp3a11, Cyp27a1 (exons 1/2), Cyp27a1 (exons 8/9) and 36b4 (used as a housekeeping gene).
(§3) ΔCt values using 36b4 mRNA levels as reference gene were corrected with the efficiency of amplification of each pair of primers and multiplied by 1.000 to facilitate graphical representation.
(§4) To this aim, mRNA was extracted from liver samples collected 2 weeks after vector administration, or one month after initiation of the CDCA treatment. First, the inventors studied the impact of the treatments on the transcriptional control of the endogenous Cyp27a1 gene. Since CTX mice present truncation of the gene at exon 8 out of 9 (Rosen H, et al. J. Biol. Chem. 1998; 273:14805-14812), the inventors employed primers targeting exons 1/2 in order to detect the wild type or truncated transcripts.

[4] = tested on: Cyp3a11; details: 0.5% diet, one month
Method: as §2, §3, §4

[5] = tested on: Cyp7a1; details: 0.5% diet (therapeutic dose), one month
Method: as §2, §3, §4

[6] = tested on: CTX mice; assay: Hepatomegaly: relative liver weight as percentage of body weight; details: 0.5% diet, 3 months
Method: FIG. 11. AAV8-EAAT-CYP27A1 reverses hepatomegaly in CTX mice. The AAV8-EAAT-CYP27A1 vector was administered intravenously to 7 week-old CTX mice at the indicated doses. CDCA was mixed in mouse chow at 0.1 or 0.5%. Untreated CTX and WT littermates were included as a reference. Mice were maintained for 3 months and then they were sacrificed for determination of relative liver weight, represented as percentage of body weight. *p<0.05; ***p<0.001 versus untreated CTX mice. Kruskal-Wallis with Dunn's post-test.
Activation of the xenobiotic response pathways produces hepatomegaly in CTX mice (Repa J J, et al. J. Biol. Chem. 2000; 275:39685-39692).

[7] = tested on: CTX mice; assay: Bile acid profile in blood (HPLC-MS/MS)
Method: as §1
In order to determine if gene therapy is able to achieve sustained metabolic correction in CTX mice, the bile acid profile was analyzed in the blood of animals treated with AAV8-EAAT-CYP27A1 for 5 months at 1.5 or 15×10^12 vg/Kg. The optimal dose of CDCA (0.5% chow weight) was maintained for the same period and used for comparison. The inventors observed an increase of primary and secondary bile acids in mice treated with the vector at both doses (FIG. 12), including CDCA. […] This tendency was more evident in the high dose group and included other species such as tauromuricholic acids (TMCA) and taurohyodeoxycholic acid (THDCA). In sharp contrast, treatment with CDCA caused a drastic increase in this bile acid and its derivatives (1000-fold above normal levels), whereas CA and derived species were not restored.

[8] = diet 0.1, 0.5 or 1% of chow weight, one month

With `C[C@H](CCC(=O)O)[C@H]1CC[C@H]2[C@@H]3[C@H](O)C[C@@H]4C[C@H](O)CC[C@]4(C)[C@H]3CC[C@]12C` [CDCA, chenodeoxycholic acid] the 7αC4 in plasma [1, 8] was “dose-dependent reduction”, the cholestanol in plasma [1, 8] was “dose-dependent reduction” and the “cholestanol levels in plasma” value ([1]; diet 0.5% or higher, one month) was “below WT mice; also recorded: very efficient”. The 7αC4 in plasma ([1]; diet 0.5%, one month, male and female) was “full normalization; also recorded: not completely normalized”, the “therapeutic dose in the CTX model” value ([1]; percent of chow weight, dose required for normalization of 7αC4) was 0.5% and the body weight [2] was “weight loss”. For the same compound, the “transcription of the endogenous Cyp27a1 gene” value [3] was “moderate inhibition”, the “Cyp3a11 expression in liver” value [4] was “only a slight reduction” and the “Cyp7a1 expression in liver” value [5] was “drastic reduction of Cyp7a1 expression, below physiological levels; also recorded: virtually abrogated”. For the same compound, the “hepatomegaly (relative liver weight)” value [6] was “only partially”, the “CA and derived species in blood” value ([7]; 0.5% chow weight, 5 months) was “not restored” and the “increase in CDCA and its derivatives in blood above normal levels” value ([7]; 0.5% chow weight, 5 months) was 1000 fold. For the same compound, the CDCA in blood ([7]; therapeutic dose (0.5%)) was “marked accumulation”.
